Key:
Glycine max [1] = experiment: Activity of soybean lipoxygenase 1
Glycine max [2] = experiment: Activity of soybean lipoxygenase 1 assessed as rate of oxidation under diffusion-controlled reaction at 20 deg C
Glycine max [3] = experiment: Activity of soybean lipoxygenase 1 assessed as rate of oxidation under diffusion-controlled reaction at 5 deg C
Glycine max [4] = experiment: Activity of soybean lipoxygenase 1 assessed as rate of oxidation under diffusion-controlled reaction at 37 deg C

| SMILES | Km (Glycine max [1]) | Activity (Glycine max [2]) | Activity (Glycine max [3]) | Activity (Glycine max [4]) |
| --- | --- | --- | --- | --- |
| CCCCC/C=C\C/C=C\C/C=C\C/C=C\CCCC(=O)O | 15 µM | 56% | 18% | 28% |
| CCCCC/C=C\C/C=C\CCCCCCCC(=O)O | 39 µM |  |  |  |
